Columns and labels:
[1] = system: SMN2 minigene (full length SMN2 minigene mRNA containing SMN2 exon 7); assay: SMN2 minigene mRNA splicing RT-qPCR assay in cultured cells; assay type: cell-based, human; conditions: Homo sapiens, HEK293-H; HEK293H cells stably transfected with SMN2-A minigene; 24 hours; 7-point concentration curve; 1.5-fold relative to vehicle-treated cells; read-out: EC1.5x for production of full length SMN2 mRNA
In short: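 HEK293H cells stably carrying the SMN2-A minigene treated 24 h at 37° C with compound (DMSO, 200× stock), then lysed. Multiplex RT-qPCR (SMN primers 0.4 μM final; 40 cycles) measures full-length exon 7-containing minigene mRNA, normalized to GAPDH and to vehicle; EC1.5x derived and binned by stars.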

[2] = system: Smn protein; assay: Smn protein assay in cultured cells (SMN HTRF); assay type: cell-based, human; conditions: 48 hours; for EC1.5x (concentration giving 1.5-fold Smn protein increase): SMA Type 1 patient fibroblast cells (GM03813), 7-point concentration curve, SMN HTRF, concentration producing 1.5 times Smn protein vs DMSO vehicle control, read-out: EC1.5x for Smn protein expression; for maximum fold (Fold) increase of Smn protein: SMA patient fibroblast cells, 7-point concentration data, fold increase relative to vehicle control (SMN HTRF)
In short: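 Lysates in RIPA with protease inhibitors are incubated overnight at room temperature with HTRF anti-SMN antibodies. EC1.5x is derived from fold increase in ΔF over vehicle.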

melting point [°C] | Structure (SMILES) | EC (1.5-fold) [1] [µM] | EC1.5x (concentration giving 1.5-fold Smn protein increase) [2] [nM] | maximum fold (Fold) increase of Smn protein [2]
203 to 205 | Cc1cc2cc(-c3cc4ccc(N5CCN(CCO)CC5)cc4oc3=O)oc2c(C)n1 [Compound 774, 3-(5,7-dimethylfuro[2,3-c]pyridin-2-yl)-7-[4-(2-hydroxyethyl)piperazin-1-yl]-2H-chromen-2-one] | < 0.1 | < 300 | **** (fold increase between >1.5 and ≤1.65)
198 to 200 | Cc1cn2cc(-c3cc4ccc(C5CCN(C6COC6)CC5)cc4oc3=O)ccc2n1 [Compound 828, 3-(2-methylimidazo[1,2-a]pyridin-6-yl)-7-[1-(oxetan-3-yl)piperidin-4-yl]-2H-chromen-2-one] | 0.1 to 0.3 | 300 to 1000 | ***** (fold increase >1.65)
194 to 196 | C[C@H]1CN(c2ccc3cc(-c4ccc(N(C)C)nc4)c(=O)oc3c2)CCN1 [Compound 548, 3-[6-(dimethylamino)pyridin-3-yl]-7-[(3S)-3-methylpiperazin-1-yl]-2H-chromen-2-one] | 3 to 30 | – | * (maximum fold increase of ≤1.2)
156 to 160 | Cc1cn2cc(-c3cc4ccc(CCCCN(C)CCO)cc4oc3=O)nc2c(C)n1 [Compound 903, 3-(6,8-dimethylimidazo[1,2-a]pyrazin-2-yl)-7-{4-[(2-hydroxyethyl)(methyl)amino]butyl}-2H-chromen-2-one] | < 0.1 | 300 to 1000 | **** (fold increase between >1.5 and ≤1.65)
288 to 294 | C[C@@H]1CN(c2cc(F)c3cc(-c4nc5ccccc5[nH]4)c(=O)oc3c2)C[C@H](C)N1 [Compound 371, 3-(1H-benzimidazol-2-yl)-7-[(3R,5S)-3,5-dimethylpiperazin-1-yl]-5-fluoro-2H-chromen-2-one] | 0.3 to 1 | – | * (maximum fold increase of ≤1.2)
278 to 282 | O=c1oc2cc(CO)cc(F)c2cc1-c1cn2ccsc2n1 [Compound 397, 5-fluoro-7-(hydroxymethyl)-3-(imidazo[2,1-b][1,3]thiazol-6-yl)-2H-chromen-2-one] | 3 to 30 | – | * (maximum fold increase of ≤1.2)
258 to 263 | Cc1cc(Cl)c2nc(-c3cc4ccc(N5C[C@@H](C)N[C@@H](C)C5)cc4oc3=O)cn2c1 [Compound 342, 3-(8-chloro-6-methylimidazo[1,2-a]pyridin-2-yl)-7-[(3R,5S)-3,5-dimethylpiperazin-1-yl]-2H-chromen-2-one] | 0.1 to 0.3 | – | ** (fold increase between >1.2 and ≤1.35)
186 to 189 | Cc1cc2cc(-c3cc4ccc(N5CCN(C(C)C)CC5)cc4oc3=O)oc2c(C)n1 [Compound 789, 3-(5,7-dimethylfuro[2,3-c]pyridin-2-yl)-7-[4-(propan-2-yl)piperazin-1-yl]-2H-chromen-2-one] | < 0.1 | – | *** (fold increase between >1.35 and ≤1.5)
290 to 300 | Cc1cc(F)cn2cc(-c3cc4ccc(N5C[C@@H](C)N[C@@H](C)C5)cc4oc3=O)nc12 [Compound 331, 7-[(3R,5S)-3,5-dimethylpiperazin-1-yl]-3-(6-fluoro-8-methylimidazo[1,2-a]pyridin-2-yl)-2H-chromen-2-one] | 0.3 to 1 | – | * (maximum fold increase of ≤1.2)
185 to 188 | Cc1cn2cc(-c3cc4ccc(OCCN[C@H](C)CO)cc4oc3=O)nc2c(C)n1 [Compound 946, 3-(6,8-dimethylimidazo[1,2-a]pyrazin-2-yl)-7-(2-{[(2R)-1-hydroxypropan-2-yl]amino}ethoxy)-2H-chromen-2-one] | < 0.1 | < 300 | **** (fold increase between >1.5 and ≤1.65)

Second part, the compound before the results:

Structure (SMILES) | melting point [°C] | EC (1.5-fold) [1] [µM] | EC1.5x (concentration giving 1.5-fold Smn protein increase) [2] [nM] | maximum fold (Fold) increase of Smn protein [2]
Cl.O=c1oc2cc(N3CCNCC3)ccc2cc1-c1nc2c(Cl)cccc2o1 [Compound 70, 3-(4-chloro-1,3-benzoxazol-2-yl)-7-(piperazin-1-yl)-2H-chromen-2-one hydrochloride] | 278 to 282 | 0.3 to 1 | – | * (maximum fold increase of ≤1.2)
O=c1oc2cc(N3CCNCC3)ccc2cc1-c1nc2cncnc2[nH]1 [Compound 314, 7-(piperazin-1-yl)-3-(9H-purin-8-yl)-2H-chromen-2-one] | 291 to 297 | 1 to 3 | – | * (maximum fold increase of ≤1.2)
CNCc1ccc2cc(-c3nc4ccccc4s3)c(=O)oc2c1 [Compound 78, 3-(1,3-benzothiazol-2-yl)-7-[(methylamino)methyl]-2H-chromen-2-one] | 156 to 160 | 0.3 to 1 | – | *** (fold increase between >1.35 and ≤1.5)
Cc1ccn2nc(-c3cc4ccc(N5CCN(C)CC5)cc4oc3=O)cc2c1 [Compound 303, 7-(4-methylpiperazin-1-yl)-3-(5-methylpyrazolo[1,5-a]pyridin-2-yl)-2H-chromen-2-one] | 279 to 281 | 0.3 to 1 | 3000 to 10000 | *** (fold increase between >1.35 and ≤1.5)
O=c1oc2cc(N3CCCNCC3)ccc2cc1-c1cn2ccc(C(F)(F)F)cc2n1 [Compound 275, 7-(1,4-diazepan-1-yl)-3-[7-(trifluoromethyl)imidazo[1,2-a]pyridin-2-yl]-2H-chromen-2-one] | 253 to 262 | 0.3 to 1 | – | * (maximum fold increase of ≤1.2)
Cc1cc(C)c2nc(-c3cc4ccc(N5C[C@@H](C)N[C@@H](C)C5)cc4oc3=O)cn2c1 [Compound 262, 3-(6,8-dimethylimidazo[1,2-a]pyridin-2-yl)-7-[(3R,5S)-3,5-dimethylpiperazin-1-yl]-2H-chromen-2-one] | 227 to 237 | 0.3 to 1 | – | ** (fold increase between >1.2 and ≤1.35)
Cc1ccnc(Nc2cc3ccc(N4CCNCC4)cc3oc2=O)c1 [Compound 62, 3-[(4-methylpyridin-2-yl)amino]-7-(piperazin-1-yl)-2H-chromen-2-one] | 182 to 185 | 1 to 3 | – | * (maximum fold increase of ≤1.2)
CN1CCCN(c2ccc3cc(-c4cc5ccccn5n4)c(=O)oc3c2)CC1 [Compound 193, 7-(4-methyl-1,4-diazepan-1-yl)-3-(pyrazolo[1,5-a]pyridin-2-yl)-2H-chromen-2-one] | 159 to 163 | 0.1 to 0.3 | 3000 to 10000 | ** (fold increase between >1.2 and ≤1.35)
Cc1cccn2cc(-c3cc4ccc(N5CCCNCC5)cc4oc3=O)nc12 [Compound 281, 7-(1,4-diazepan-1-yl)-3-(8-methylimidazo[1,2-a]pyridin-2-yl)-2H-chromen-2-one] | 138 to 140 | 0.3 to 1 | – | ** (fold increase between >1.2 and ≤1.35)
